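Interpolation was linear, between the two tested concentrations surrounding the appropriate level; five concentrations were tested over 48 hours in 96-well plates. Abbreviation: GI50, concentration required for 50% inhibition of growth. TGI is the concentration that stops growth completely.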
How the values were obtained:
Experiment in all cases: NCI anticancer screen, dose series, 48 h
[1] = test system: U251 CNS
[2] = test system: A549 NSCLC
[3] = test system: HOP-62 NSCLC
[4] = test system: IGROV1 ovarian
[5] = test system: HCC-2998 colon
[6] = test system: NCI-H23 lung
[7] = test system: MALME-3M melanoma
[8] = test system: UACC-257 melanoma
[9] = test system: NCI-H522 lung
[10] = test system: NCI/ADR-RES ovarian

Compound	TGI [1]	TGI [2]	TGI [3]	TGI [4]	TGI [5]	TGI [6]	TGI [7]	TGI [8]	TGI [9]	GI50 [1]	GI50 [10]	TGI [10]	GI50 [7]	GI50 [2]	GI50 [4]	GI50 [5]	GI50 [8]	GI50 [9]	GI50 [6]	GI50 [3]
CCOC(=O)c1ccc(/C(C)=N/NC(N)=S)cc1	> 100 µM	> 100 µM	> 100 µM	> 100 µM	> 100 µM	> 100 µM	–	–	–	–	–	–	–	–	–	–	–	–	–	–
COC(=O)/C(=N\NC(N)=S)C(C(=O)OC)C(=O)C(=O)Nc1ccc(C)cc1 (stereo not drawn)	> 100 µM	> 100 µM	> 100 µM	> 100 µM	> 100 µM	> 100 µM	> 100 µM	> 100 µM	> 100 µM	–	–	–	–	–	–	–	–	–	–	–
Cc1ccc2nc(/C(=C/c3ccc(/C=C(\NC(=O)c4ccccc4)c4nc5ccc(C)cc5[nH]4)c(C)c3)NC(=O)c3ccccc3)[nH]c2c1	60.2 µM	65.9 µM	> 100 µM	> 100 µM	–	45.3 µM	59.9 µM	–	42.6 µM	–	–	–	–	–	–	–	–	–	–	–
CC(C)C1=Cc2ccc3c(c2C(=O)C1=O)CCCC3(C)C	27.2 µM	34.8 µM	37 µM	12.9 µM	32.7 µM	29.6 µM	10.5 µM	8.64 µM	3.39 µM	–	–	–	–	–	–	–	–	–	–	–
CN(C)C(=S)/N=c1\sn(C)/c(=N\C(=S)N(C)C)n1C	> 100 µM	> 100 µM	> 100 µM	> 100 µM	> 100 µM	> 100 µM	75.7 µM	> 100 µM	> 100 µM	–	–	–	–	–	–	–	–	–	–	–
O=C(CC1C(=O)Nc2ccccc2S1=O)Nc1cc(Cl)ccc1Cl (stereo not drawn)	> 100 µM	> 100 µM	–	> 100 µM	> 100 µM	> 100 µM	> 100 µM	> 100 µM	> 100 µM	–	–	–	–	–	–	–	–	–	–	–
COc1cc(N=Nc2ccc(O)c3ncccc23)c2ncccc2c1	> 100 µM	> 100 µM	–	> 100 µM	> 100 µM	> 100 µM	33.7 µM	> 100 µM	> 100 µM	3.43 µM	1.02 µM	15.5 µM	4.03 µM	8.04 µM	3.67 µM	3.65 µM	10.9 µM	4.26 µM	3.75 µM	–
C#CC1/C(=C\C(=O)OC)CCCC1O (stereo not drawn)	> 100 µM	> 100 µM	> 100 µM	> 100 µM	> 100 µM	> 100 µM	> 100 µM	> 100 µM	> 100 µM	–	–	–	–	–	–	–	–	–	–	–
C=CCC1(c2ccc(OC)cc2)C=CC(=O)CC1 (stereo not drawn)	> 100 µM	> 100 µM	> 100 µM	> 100 µM	> 100 µM	> 100 µM	–	> 100 µM	> 100 µM	–	–	> 100 µM	–	–	–	–	–	–	–	–
COc1ccc(-c2nnc3n(C)c(=O)c4ccccc4n23)cc1N	> 100 µM	> 100 µM	> 100 µM	> 100 µM	> 100 µM	> 100 µM	–	–	42.6 µM	1.63 µM	0.0656 µM	> 100 µM	–	1.47 µM	14.7 µM	5.29 µM	–	0.0306 µM	5.28 µM	0.0482 µM
O=C(/C(=C/c1ccc(Cl)cc1)c1ccccc1)c1ccccc1	33.9 µM	–	57.5 µM	49.1 µM	31.2 µM	40.5 µM	31.3 µM	29 µM	34.7 µM	–	–	–	–	–	–	–	–	–	–	–
